Results on 29 molecules are retold here after ChEMBL document CHEMBL4483862, “Open-source discovery of chemical leads for next-generation chemoprotective antimalarials” (2018).

Where only a bound is given, the exact number is not on record here.

The subject of this assay is Plasmodium berghei. In words: Luciferase/luciferin-expressing antifolate-resistant parasites were used to infect a culture of HepG2 cells that were pre-incubated with compounds. Infected hepatocytes emit light due to the luciferase reaction. Assay results are presented as the percent inhibition of light emission compared to control. […]. The assay is classed as functional. The note with it: sporozoite; for IC90: read-out: LUCIFERASE INFECTION ASSAY - IC90.

Consider `CC1(C)CCc2cc(-c3ccnc(S)n3)ccc2O1`, for which the IC90 (usually the concentration at which the effect reaches the 90% level) was over 12.1 µM. Moreover, the IC50 (commonly the concentration needed to halve the response being measured) (FFLUC_HILL_SLOPE 9.25, FFLUC_R_SQUARED 0.0162, PBLUC_HILL_SLOPE 0.814, PBLUC_R_SQUARED 0.637, read-out: LUCIFERASE INFECTION ASSAY - IC50) was determined as 1.38 µM.

Regarding `CCOC(=O)c1ccc(N2C(=O)C=CC2=O)cc1`, the IC90 was over 13.5 µM. Also, the IC50 (FFLUC_HILL_SLOPE 9.09, FFLUC_R_SQUARED 0.613, PBLUC_HILL_SLOPE 2.11, PBLUC_R_SQUARED 0.463, read-out: LUCIFERASE INFECTION ASSAY - IC50) came to 7.08 µM.

Regarding `O=C1C=CC(=O)N1c1ccc(F)cc1F`, the 90% effect concentration (IC90) was found to be 13.8 µM. Further, where the note is “FFLUC_HILL_SLOPE 8.62, FFLUC_R_SQUARED 0.718, PBLUC_HILL_SLOPE 4.26, PBLUC_R_SQUARED 0.573, read-out: LUCIFERASE INFECTION ASSAY - IC50”, the IC50 was determined as 8.24 µM.

In the case of `Cc1onc(-c2ccc(Cl)cc2Cl)c1-c1csc(N/N=C/c2ccccc2Cl)n1`, the 90% effect concentration (IC90) was over 7.12 µM. For the same molecule, for the setting “FFLUC_HILL_SLOPE 8.51, FFLUC_R_SQUARED 0.488, HEPG2TOX_HILL_SLOPE 2.88, HEPG2TOX_R_SQUARED 0.834, read-out: LUCIFERASE INFECTION ASSAY - IC50”, the IC50 was over 7.12 µM.

With `CC(C)(C)c1cc(/C=C2\C=c3ccccc3=C2O)cc(C(C)(C)C)c1O`, the concentration for an effect of 90% (IC90) was over 9.47 µM. The concentration for half-maximal inhibition (IC50) (FFLUC_HILL_SLOPE 9.15, FFLUC_R_SQUARED 0.521, read-out: LUCIFERASE INFECTION ASSAY - IC50) is over 9.47 µM.

As for `O=C(NCc1ccccc1)/C(=C/c1ccc(OCc2ccccc2)cc1)c1nc2ccccc2[nH]1`, the 90% effect concentration (IC90) stood at 1.26 µM. Further, for the setting “FFLUC_HILL_SLOPE 9.07, FFLUC_R_SQUARED 0.413, PBLUC_HILL_SLOPE 2.18, PBLUC_R_SQUARED 0.79, read-out: LUCIFERASE INFECTION ASSAY - IC50”, the concentration for half-maximal inhibition (IC50) is 0.462 µM.

On to `Cc1cc2oc(=O)cc(Cn3cnc4sc(C)c(-c5ccccc5)c4c3=O)c2cc1Cl`, for which the concentration for an effect of 90% (IC90) is over 10 µM. Also, the IC50 (FFLUC_HILL_SLOPE 8.53, FFLUC_R_SQUARED 0.709, PBLUC_HILL_SLOPE 1.77, PBLUC_R_SQUARED 0.508, read-out: LUCIFERASE INFECTION ASSAY - IC50) amounted to 4.81 µM.

As to `CC(=O)OCc1ccccc1Sc1ccccc1C(=O)Nc1ccccc1`, the concentration for an effect of 90% (IC90) is over 8.74 µM. Moreover, the IC50 (FFLUC_HILL_SLOPE 9.22, FFLUC_R_SQUARED 0.715, read-out: LUCIFERASE INFECTION ASSAY - IC50) was over 8.74 µM.

Turning to `Cc1cc(C)n(-c2ccc([N+](=O)[O-])cc2S(=O)(=O)N(CC(=O)N2CCCc3ccccc32)c2ccc(Cl)cc2)n1`, the IC90 was 4.71 µM. Also, the IC50 (FFLUC_HILL_SLOPE 9.12, FFLUC_R_SQUARED 0.891, HEPG2TOX_HILL_SLOPE 1.68, HEPG2TOX_R_SQUARED 0.248, PBLUC_HILL_SLOPE 7.9, PBLUC_R_SQUARED 0.762, read-out: LUCIFERASE INFECTION ASSAY - IC50) was found to be 3.56 µM.

`COc1ccc(NS(=O)(=O)c2cc(NC(=O)c3cccc(OC(F)F)c3)ccc2N2CCCCC2)cc1`: the IC90 is over 10 µM. In addition, the IC50 (FFLUC_HILL_SLOPE 8.96, FFLUC_R_SQUARED 0.85, read-out: LUCIFERASE INFECTION ASSAY - IC50) is over 10 µM.

Consider `Cc1nn(-c2nc3ccccc3s2)c2c1C(c1cc(Br)c(O)c(Br)c1)C1C(=O)CCCC1=N2` (stereo not drawn), for which the IC90 is over 10 µM. Moreover, the IC50 (FFLUC_HILL_SLOPE 9.07, FFLUC_R_SQUARED 0.197, PBLUC_HILL_SLOPE 1.11, PBLUC_R_SQUARED 0.592, read-out: LUCIFERASE INFECTION ASSAY - IC50) stood at 4.69 µM.

As to `COc1cccc(N(C(=O)c2ccc3c(c2)OCO3)c2nc(-c3ccc(Cl)cc3Cl)cs2)c1`, the 90% effect concentration (IC90) was over 10 µM. Further, the IC50 (FFLUC_HILL_SLOPE 8.73, FFLUC_R_SQUARED 0.44, PBLUC_HILL_SLOPE 14.1, PBLUC_R_SQUARED 0.181, read-out: LUCIFERASE INFECTION ASSAY - IC50) worked out at 8.64 µM.

In the case of `Cc1ccc(CSc2nc3c(c(-c4cccs4)c2C#N)CCCC3)cc1`, the IC90 is over 8.76 µM. For the setting “FFLUC_HILL_SLOPE 8.93, FFLUC_R_SQUARED 0.64, PBLUC_HILL_SLOPE 2.69, PBLUC_R_SQUARED 0.339, read-out: LUCIFERASE INFECTION ASSAY - IC50”, the IC50 came to 6.13 µM.

Regarding `CSc1nc(C)nc(C)c1C(=O)Nc1nc(-c2ccc3c(c2)CCCC3)cs1`, the concentration for an effect of 90% (IC90) is over 10 µM. Also, the IC50 (FFLUC_HILL_SLOPE 9.1, FFLUC_R_SQUARED 0.159, read-out: LUCIFERASE INFECTION ASSAY - IC50) was over 10 µM.

As for `CC(Sc1nnc(-c2cccs2)n1C(C)C1CC2CCC1C2)C(=O)N1CCCc2ccccc21` (stereo not drawn), the 90% effect concentration (IC90) is over 10 µM. Besides, the IC50 (FFLUC_HILL_SLOPE 9.01, FFLUC_R_SQUARED 0.23, read-out: LUCIFERASE INFECTION ASSAY - IC50) is over 10 µM.

For `CCCCc1ccc(NC2=C(Cl)C(=O)c3ccccc3C2=O)cc1`, the IC90 worked out at 3.62 µM. Besides, the IC50 (FFLUC_HILL_SLOPE 9.03, FFLUC_R_SQUARED 0.305, HEPG2TOX_HILL_SLOPE 8.62, HEPG2TOX_R_SQUARED 0.549, PBLUC_HILL_SLOPE 14.3, PBLUC_R_SQUARED 0.552, read-out: LUCIFERASE INFECTION ASSAY - IC50) came to 3.1 µM.

For the molecule `O=C(Cn1ncc(Cl)c(Cl)c1=O)Nc1cccc(Oc2ccccc2)c1`, the IC90 is over 10 µM. The IC50 (FFLUC_HILL_SLOPE 8.65, FFLUC_R_SQUARED 0.47, PBLUC_HILL_SLOPE 2.15, PBLUC_R_SQUARED 0.511, read-out: LUCIFERASE INFECTION ASSAY - IC50) was 6.79 µM.

For the molecule `Cn1c(-c2ccc(Cl)cc2)csc1=Nc1ccc(Cl)c(Cl)c1`, the IC90 turned out to be 3.46 µM. Moreover, under “FFLUC_HILL_SLOPE 8.54, FFLUC_R_SQUARED 0.841, PBLUC_HILL_SLOPE 1.64, PBLUC_R_SQUARED 0.468, read-out: LUCIFERASE INFECTION ASSAY - IC50”, the half-inhibitory concentration (IC50) is 0.91 µM.

As to `CNc1snc(C)c1C(=O)OCc1cc(Cl)ccc1OC`, the IC90 was determined as 4.16 µM. In addition, the IC50 (FFLUC_HILL_SLOPE 8.97, FFLUC_R_SQUARED 0.0554, PBLUC_HILL_SLOPE 11, PBLUC_R_SQUARED 0.441, read-out: LUCIFERASE INFECTION ASSAY - IC50) was 3.41 µM.

For the molecule `Cc1ccc(-n2c(SCC(=O)NC34CC5CC(CC(C5)C3)C4)nnc2-c2ccccc2)cc1C`, the IC90 is over 10 µM. Also, where the note is “FFLUC_HILL_SLOPE 8.79, FFLUC_R_SQUARED 0.279, read-out: LUCIFERASE INFECTION ASSAY - IC50”, the half-inhibitory concentration (IC50) is over 10 µM.

As for `CSC1=C(C#N)C(=O)NC(c2c(Cl)cccc2Cl)S1` (stereo not drawn), the IC90 was over 9.96 µM. The half-inhibitory concentration (IC50) (FFLUC_HILL_SLOPE 9.34, FFLUC_R_SQUARED 0.0497, read-out: LUCIFERASE INFECTION ASSAY - IC50) was over 9.96 µM.

Consider `N#Cc1ccccc1NC(=O)CSc1nc2scc(-c3ccccc3Cl)c2c(=O)n1CCc1ccccc1`, for which the concentration for an effect of 90% (IC90) worked out at 9.03 µM. Under “FFLUC_HILL_SLOPE 9.25, FFLUC_R_SQUARED 0.857, PBLUC_HILL_SLOPE 5.48, PBLUC_R_SQUARED 0.817, read-out: LUCIFERASE INFECTION ASSAY - IC50”, the IC50 turned out to be 6.05 µM.

For `CCOC(=O)C1C(C)=NC2=C(C(=O)CC(c3ccc(F)cc3)C2)C1c1ccccc1C(F)(F)F` (stereo not drawn), the IC90 was over 6.97 µM. For the same molecule, the IC50 (FFLUC_HILL_SLOPE 9.32, FFLUC_R_SQUARED 0.536, HEPG2TOX_HILL_SLOPE 7.97, HEPG2TOX_R_SQUARED 0.882, PBLUC_HILL_SLOPE 14, PBLUC_R_SQUARED 0.0949, read-out: LUCIFERASE INFECTION ASSAY - IC50) was found to be 6.64 µM.

For `COc1ccc(O)c(C(=O)c2cnc(Nc3nc(C)c4ccccc4n3)nc2)c1`, the concentration for an effect of 90% (IC90) was over 10 µM. Also, where the note is “FFLUC_HILL_SLOPE 8.56, FFLUC_R_SQUARED 0.251, read-out: LUCIFERASE INFECTION ASSAY - IC50”, the IC50 was over 10 µM.

For `CC(=O)c1cccc(-c2cnc3cnc(-c4ccc(CNc5ccccc5)cc4)cn23)c1`, the IC90 is over 7.89 µM. For the setting “FFLUC_HILL_SLOPE 9.2, FFLUC_R_SQUARED 0.0159, PBLUC_HILL_SLOPE 3.04, PBLUC_R_SQUARED 0.57, read-out: LUCIFERASE INFECTION ASSAY - IC50”, the IC50 came out at 4.89 µM.

Take `O=C(Nc1nc2ccccc2[nH]1)c1ccc(S(=O)(=O)N2CCc3ccccc3C2)cc1`: the 90% effect concentration (IC90) was over 10 µM. Under “FFLUC_HILL_SLOPE 9.27, FFLUC_R_SQUARED 0.301, PBLUC_HILL_SLOPE 0.89, PBLUC_R_SQUARED 0.688, read-out: LUCIFERASE INFECTION ASSAY - IC50”, the half-maximal inhibitory concentration (IC50) was found to be 4.81 µM.

With `N#CC1c2ccccc2Oc2ccccc21`, the IC90 is over 15.9 µM. The concentration for half-maximal inhibition (IC50) (FFLUC_HILL_SLOPE 8.54, FFLUC_R_SQUARED 0.413, HEPG2TOX_HILL_SLOPE 16, HEPG2TOX_R_SQUARED 0.746, PBLUC_HILL_SLOPE 2.78, PBLUC_R_SQUARED 0.395, read-out: LUCIFERASE INFECTION ASSAY - IC50) came out at 10.4 µM.

`CC(C)=CC(=O)Nc1scc(-c2ccccc2)c1C(=O)OCc1nnc(-c2cccs2)o1`: the concentration for an effect of 90% (IC90) is over 10 µM. For the same molecule, the concentration for half-maximal inhibition (IC50) (FFLUC_HILL_SLOPE 8.85, FFLUC_R_SQUARED 0.514, PBLUC_HILL_SLOPE 2.24, PBLUC_R_SQUARED 0.566, read-out: LUCIFERASE INFECTION ASSAY - IC50) came to 5.03 µM.

Consider `O=S(=O)(c1ccccc1)N1[C@@H]2CC[C@@H](C2)[C@H]1c1nc2c(OCCC3CCCCC3)cccc2[nH]1`, for which the 90% effect concentration (IC90) was over 10 µM. Besides, the IC50 (FFLUC_HILL_SLOPE 8.97, FFLUC_R_SQUARED 0.445, PBLUC_HILL_SLOPE 2.11, PBLUC_R_SQUARED 0.35, read-out: LUCIFERASE INFECTION ASSAY - IC50) came out at 6.12 µM.
